Test results from article PMC3889502, “Inhibitory effects of monoterpenes on human TRPA1 and the structural basis of their activity” (The Journal of Physiological Sciences : JPS, 2013).
Entries after “also recorded” stand apart in the source; their conditions may differ.

Legend:
hTRPA1-Y812A = target: T1, hTRPA1-Y812A (Homo sapiens, UniProt O75762, Y812A); assay: Whole-cell patch-clamp: inhibition of AITC-activated current in the mutant channel; assay type: cell-based; conditions: borneol 0.03, 0.3, 1 mM; camphor 0.03, 0.3, 3 mM; 1,8-cineole 1, 5, 10 mM; -60 mV; no extracellular Ca2+
T1 construct: Full-length hTRPA1 was obtained from Life Technologies (Carlsbad, CA); expressed in transfected cells; host or cells: HEK293T
T1 sequence (O75762 whole entry Y812A): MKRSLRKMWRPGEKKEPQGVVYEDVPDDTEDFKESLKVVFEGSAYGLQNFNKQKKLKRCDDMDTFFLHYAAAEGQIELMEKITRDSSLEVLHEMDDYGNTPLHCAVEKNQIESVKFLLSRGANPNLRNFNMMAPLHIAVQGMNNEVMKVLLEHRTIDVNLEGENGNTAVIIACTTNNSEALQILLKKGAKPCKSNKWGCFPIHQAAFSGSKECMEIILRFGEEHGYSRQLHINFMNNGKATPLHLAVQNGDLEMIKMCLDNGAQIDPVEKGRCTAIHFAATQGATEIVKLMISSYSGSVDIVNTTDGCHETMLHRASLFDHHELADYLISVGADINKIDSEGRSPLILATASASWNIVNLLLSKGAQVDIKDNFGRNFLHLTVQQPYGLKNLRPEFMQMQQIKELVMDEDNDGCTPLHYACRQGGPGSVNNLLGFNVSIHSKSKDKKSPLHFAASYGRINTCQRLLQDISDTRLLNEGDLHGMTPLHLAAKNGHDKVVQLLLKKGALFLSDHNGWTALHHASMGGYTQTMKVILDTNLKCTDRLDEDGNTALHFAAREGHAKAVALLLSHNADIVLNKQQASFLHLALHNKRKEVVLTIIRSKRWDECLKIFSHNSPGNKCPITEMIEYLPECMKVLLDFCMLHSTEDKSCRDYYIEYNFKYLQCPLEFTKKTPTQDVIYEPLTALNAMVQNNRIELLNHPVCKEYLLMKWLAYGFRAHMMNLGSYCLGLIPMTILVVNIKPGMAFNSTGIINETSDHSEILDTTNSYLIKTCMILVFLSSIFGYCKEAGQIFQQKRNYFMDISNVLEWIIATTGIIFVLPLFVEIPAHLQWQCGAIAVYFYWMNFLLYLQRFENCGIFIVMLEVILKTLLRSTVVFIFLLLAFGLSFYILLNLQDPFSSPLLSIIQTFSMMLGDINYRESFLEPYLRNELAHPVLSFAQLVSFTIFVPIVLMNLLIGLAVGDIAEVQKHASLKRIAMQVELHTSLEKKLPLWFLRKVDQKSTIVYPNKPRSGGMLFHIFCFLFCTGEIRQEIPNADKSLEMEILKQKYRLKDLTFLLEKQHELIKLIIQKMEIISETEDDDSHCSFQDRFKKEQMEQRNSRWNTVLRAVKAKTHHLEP
Procedure: (§1) Whole-cell patch-clamp recordings were performed 1 day after transfection. The standard bath solution was the same as that used in the Ca^2+-imaging experiments, and extracellular Ca^2+ was removed and 5 mM EGTA added for the recording of AITC-, menthol- and FFA-induced current responses. The pipette solution contained 140 mM KCl, 5 mM EGTA, and 10 mM HEPES, pH 7.4 (adjusted with KOH). Data from the whole-cell voltage-clamp recordings were sampled at 10 kHz and filtered at 5 kHz for analysis (Axon 200B amplifier with pCLAMP software; Axon Instruments, Sunnyvale, CA). The membrane potential was clamped at −60 mV for all conditions. In some experiments, voltage ramp-pulses from −100 to +100 mV (500 ms) were applied every 5 s. All experiments were performed at room temperature.
(§2) Data in all of the figures are shown as the mean ± standard error of the mean, and P values of <0.05 were considered to be significant. […] Dose-dependent curves were fit with a Hill equation.
(§3) To test this hypothesis, we investigated whether the serine and threonine residues are involved in the inhibitory effect of borneol. […] We searched for an involvement of other amino acids in borneol activity.

hTRPA1-S873V/T874L = target: T2, hTRPA1-S873V/T874L (Homo sapiens, UniProt O75762, S873V/T874L); assay: as above; assay type: cell-based; conditions: borneol 0.03, 0.3, 1 mM; camphor 0.03, 0.3, 3 mM; 1,8-cineole 1, 5, 10 mM; -60 mV; no extracellular Ca2+
T2 construct: Full-length hTRPA1 was obtained from Life Technologies (Carlsbad, CA); expressed in transfected cells; host or cells: HEK293T
T2 sequence (O75762 whole entry S873V/T874L): as the sequence (O75762 whole entry Y812A) above, with A812Y, S873V, T874L counted along it
Procedure: as §1, §2, §3

hTRPA1 [1] = target: T3, hTRPA1 (Homo sapiens, UniProt O75762); assay: Ca2+-imaging (fura-2): inhibition of menthol-induced cytosolic Ca2+ increase; assay type: cell-based; conditions: menthol 1 mM; test compound 1 mM; HEK293T cells expressing hTRPA1
T3 construct: Full-length hTRPA1 was obtained from Life Technologies (Carlsbad, CA); host or cells: HEK293T
T3 sequence (O75762 whole entry): as the sequence (O75762 whole entry Y812A) above, with A812Y counted along it
Procedure: (§4) For Ca^2+-imaging, 1 μg of plasmid DNA containing hTRPA1 in pcDNA3 in OPTI-MEM medium (Life Technologies) was transfected into HEK293T cells using Lipofectamine Plus Reagent (Life Technologies). Following incubation for 3–4 h, cells were reseeded on coverslips and incubated further at 37 °C in 5 % CO2.
(§5) Ca^2+-imaging was performed 1 day after transfection. […] Cytosolic-free Ca^2+ concentrations in HEK293T cells were measured by dual-wavelength fura-2 (Molecular Probes, Invitrogen Corp.) microfluorometry with excitation at 340/380 nm and emission at 510 nm. The fura-2 ratio image was calculated and acquired using the IP-Lab imaging processing system (Scanalytics Inc, Fairfax, VA). Ionomycin was used to confirm cell viability in the vector-transfected cells.
Data are presented as the mean ± SEM (n = 47–79)

hTRPA1 [2] = target: T3, hTRPA1; assay: Ca2+-imaging (fura-2): activation by test compounds, normalized to menthol; assay type: cell-based; conditions: test compound 1 mM; HEK293T cells expressing hTRPA1
Procedure: as §4, §5
In these experiments, changes in the fura-2 ratio (corresponding to cytosolic Ca^2+ concentrations) induced by the test compounds and menthol were compared because menthol, which activates hTRPA1, and the test compounds are members of the monoterpene family.
Data are presented as the mean ± standard error of the mean (SEM) (n = 27–67)

hTRPA1 [3] = target: T3, hTRPA1; assay: Whole-cell patch-clamp: inhibition of agonist-induced hTRPA1 current; assay type: cell-based; conditions: for IC50 / Inhibition of AITC-induced hTRPA1 current: AITC 20 μM; for IC50: patch-clamp, mean ± SEM, n = 5-10, Hill fit; for IC50 / Inhibition of AITC-induced hTRPA1 current / Inhibition of FFA-activated hTRPA1-mediated current / Inhibition of menthol-activated hTRPA1-mediated current: no extracellular Ca2+; for Inhibition of AITC-induced hTRPA1 current / Inhibition of FFA-activated hTRPA1-mediated current / Inhibition of menthol-activated hTRPA1-mediated current: test compound 1 mM, -60 mV; for Inhibition of FFA-activated hTRPA1-mediated current: FFA 100 μM; for Inhibition of menthol-activated hTRPA1-mediated current: menthol 1 mM; for Comparison of inhibitory effects on hTRPA1 activity between optical isomers of borneol: AITC 20 μM-induced current (ESM Fig. 2)
Procedure: (§6) Human embryonic kidney (HEK) 293T cells were maintained in DMEM (WAKO Pure Chemical Industries Ltd.) supplemented with 10 % fetal bovine serum (Biowest SAS, Caille, France), 100 U/mL penicillin (Life Technologies), 100 μg/mL streptomycin (Life Technologies), and 2 mM L-glutamine (GlutaMAX; Life Technologies) at 37 °C in 5 % CO2. For Ca^2+-imaging, 1 μg of plasmid DNA containing hTRPA1 in pcDNA3 in OPTI-MEM medium (Life Technologies) was transfected into HEK293T cells using Lipofectamine Plus Reagent (Life Technologies). Following incubation for 3–4 h, cells were reseeded on coverslips and incubated further at 37 °C in 5 % CO2.
as §1, §2
The current response was measured in the absence of extracellular Ca^2+ to minimize desensitization. […] The dose-dependency of the inhibitory effects of the three compounds on hTRPA1 was then examined using the patch-clamp method. […] Commercially available borneol contains both optical isomers.

[4] = tested on: vector-transfected HEK293T cells; assay: Ca2+-imaging in vector-transfected cells (control); assay type: cell-based, human; conditions: with or without menthol; cells responded normally to ionomycin 5 μM
Procedure: (§7) Ca^2+-imaging was performed 1 day after transfection. HEK293T cells on coverslips were mounted in an open chamber and superfused with a standard bath solution (140 mM NaCl, 5 mM KCl, 2 mM MgCl2, 2 mM CaCl2, 10 mM HEPES, and 10 mM glucose, pH 7.4). Cytosolic-free Ca^2+ concentrations in HEK293T cells were measured by dual-wavelength fura-2 (Molecular Probes, Invitrogen Corp.) microfluorometry with excitation at 340/380 nm and emission at 510 nm. The fura-2 ratio image was calculated and acquired using the IP-Lab imaging processing system (Scanalytics Inc, Fairfax, VA). Ionomycin was used to confirm cell viability in the vector-transfected cells.
Washing-out of the three compounds after menthol exposure led to small increases in the fura-2 ratio, which could be due to the loss of inhibition and resumption of hTRPA1 activity from residual menthol in the cell.
Supplementary file 12576_2013_289_MOESM1_ESM.jpg: Supplementary material 1 (JPEG 324 kb) Supplementary Figure 1. […] (n = 48-75)

hTRPA1 Y812A mutant = target: T4, hTRPA1 Y812A mutant (Homo sapiens, UniProt O75762, Y812A); assay: Ca2+-imaging screen of tyrosine mutants in TM2 and TM3 of hTRPA1; assay type: cell-based; conditions: data not shown
T4 construct: Full-length hTRPA1 was obtained from Life Technologies (Carlsbad, CA); expressed in transfected cells; host or cells: HEK293T
T4 sequence (O75762 whole entry Y812A): as the sequence (O75762 whole entry Y812A) above
Procedure: as §7
A mouse TRPA1 mutant in which serine and threonine residues located in the predicted inner side of TM5 were replaced with valine and leucine (S876V/T877L), respectively, was neither activated nor inhibited by menthol. […] To test this hypothesis, we investigated whether the serine and threonine residues are involved in the inhibitory effect of borneol. […] We searched for an involvement of other amino acids in borneol activity.

hTRPA1 [5] = target: T3, hTRPA1; assay: Whole-cell patch-clamp: activation of hTRPA1 current by test compounds; assay type: cell-based; conditions: HEK293T cells expressing hTRPA1
Procedure: as §6, §1
In order to confirm the effects of the above compounds, we performed patch-clamp experiments with HEK293T cells expressing hTRPA1.
Cells were held at −60 mV and ramp-pulses from −100 to +100 mV (500 ms) were administered every 5 s

hTRPA1 [6] = target: T3, hTRPA1; conditions: cited from earlier work
mTRPA1 = conditions: camphor 1 mM; current increased upon washing-out; cited from earlier work
[7] = test compound 1 mM, held at -60 mV, ramp-pulses -100 to +100 mV

With `CC1(C)C2CCC1(C)C(O)C2` (centres unmarked) [Borneol] the “Inhibitory effect on AITC-activated current of hTRPA1-Y812A compared with hTRPA1-WT” value (hTRPA1-Y812A) was “significantly lower inhibitory effect”, the “Inhibitory effect on AITC-activated current of hTRPA1-S873V/T874L compared with hTRPA1-WT” value (hTRPA1-S873V/T874L) was “significantly lower” and the “Inhibition of the menthol-induced increase in fura-2 ratio” value (hTRPA1 [1]) was “almost completely blocked”. For the same compound, the “Change in fura-2 ratio (340/380 nm) by test compound, normalized to the change by 1 mM menthol” value (hTRPA1 [2]) was “small changes in the fura-2 ratio”, the IC50 (hTRPA1 [3]) was 200 ± 60 µM and the “Inhibition of AITC-induced hTRPA1 current” value (hTRPA1 [3]) was “completely inhibited”. For the same compound, the “Inhibition of FFA-activated hTRPA1-mediated current” value (hTRPA1 [3]) was “completely inhibited”, the “Inhibition of menthol-activated hTRPA1-mediated current” value (hTRPA1 [3]) was “completely inhibited” and the “Effect on fura-2 ratio in vector-transfected cells” value (“Effect on fura-2 ratio” for short) [4] was “did not provide any effect; also recorded: No changes in the fura-2 ratio”. For the same compound, the “Effect of borneol on the Y812A mutant in Ca2+-imaging” value (hTRPA1 Y812A mutant) was “reduced” and the “Activation of whole-cell hTRPA1 current” value (hTRPA1 [5]; [7]) was “did not activate hTRPA1”.

In the case of `CC12CCC(C1)C(C)(C)C2=O` (single isomer, unassigned; (-)) [(−)-Fenchone], the “Change in fura-2 ratio (340/380 nm) by test compound, normalized to the change by 1 mM menthol” value (hTRPA1 [2]) is reported as “activated hTRPA1”.

In the case of `CC12CCC(CC1)C(C)(C)O2` [1,8-Cineole], the “Inhibitory effect on AITC-activated current of hTRPA1-Y812A compared with hTRPA1-WT” value (hTRPA1-Y812A) is given as “such differences between WT hTRPA1 and hTRPA1-Y812A were not observed”, the “Inhibitory effect on AITC-activated current of hTRPA1-S873V/T874L compared with hTRPA1-WT” value (hTRPA1-S873V/T874L) is given as “no significant changes” and the “Effect on hTRPA1 (activation or inhibition)” value (hTRPA1 [6]) is given as “inhibit hTRPA1”.

In the case of `CC12CCC(C1)C(C)(C)C2O` (centres unmarked) [Fenchyl alcohol], the “Inhibition of AITC-induced hTRPA1 current” value (hTRPA1 [3]) is reported as “completely inhibited”, the “Inhibition of FFA-activated hTRPA1-mediated current” value (hTRPA1 [3]) is reported as “completely inhibited” and the “Inhibition of menthol-activated hTRPA1-mediated current” value (hTRPA1 [3]) is reported as “completely inhibited”. For the same compound, the “Activation of whole-cell hTRPA1 current” value (hTRPA1 [5]; [7]) was “did not activate hTRPA1”.

For `CC(C)C12CCC(C)(CC1)O2` [1,4-cineole], the “Effect on hTRPA1 (activation or inhibition)” value (hTRPA1 [6]) is given as “activate hTRPA1”.

For `O=C1CC2CC[C@H]1C2` [Norcamphor], the “Inhibition of the menthol-induced increase in fura-2 ratio” value (hTRPA1 [1]) was “did not inhibit”, the “Change in fura-2 ratio (340/380 nm) by test compound, normalized to the change by 1 mM menthol” value (hTRPA1 [2]) was “small changes in the fura-2 ratio” and the “Effect on fura-2 ratio” value [4] was “did not provide any effect; also recorded: No changes in the fura-2 ratio”. The “Activation of whole-cell hTRPA1 current” value (hTRPA1 [5]; [7]) was “did not activate hTRPA1”.

For `C=CCN=C=S` [AITC, allyl isothiocyanate, reference compound], the “Activation of whole-cell hTRPA1 current” value (hTRPA1 [5]; AITC 20 μM) was “robust current activation with outward rectification”.

In the case of `CC1(C)[C@@H]2CC[C@@]1(C)[C@@H](O)C2` [(+)-borneol], the “Comparison of inhibitory effects on hTRPA1 activity between optical isomers of borneol” value (hTRPA1 [3]) is reported as “no difference in the inhibitory effects”.

With `CC1(C)[C@H]2CC[C@]1(C)[C@H](O)C2` [(−)-borneol] the “Comparison of inhibitory effects on hTRPA1 activity between optical isomers of borneol” value (hTRPA1 [3]) was “no difference in the inhibitory effects”.

For `CC1(C)[C@@H]2CC[C@@]1(C)[C@](C)(O)C2` [2-Methylisoborneol], the “Inhibition of the menthol-induced increase in fura-2 ratio” value (hTRPA1 [1]) was “almost completely blocked”, the “Change in fura-2 ratio (340/380 nm) by test compound, normalized to the change by 1 mM menthol” value (hTRPA1 [2]) was “small changes in the fura-2 ratio” and the IC50 (hTRPA1 [3]) was 120 ± 30 µM. For the same compound, the “Inhibition of AITC-induced hTRPA1 current” value (hTRPA1 [3]) was “completely inhibited”, the “Inhibition of FFA-activated hTRPA1-mediated current” value (hTRPA1 [3]) was “completely inhibited” and the “Inhibition of menthol-activated hTRPA1-mediated current” value (hTRPA1 [3]) was “completely inhibited”. For the same compound, the “Effect on fura-2 ratio” value [4] was “did not provide any effect; also recorded: No changes in the fura-2 ratio” and the “Activation of whole-cell hTRPA1 current” value (hTRPA1 [5]; [7]) was “did not activate hTRPA1”.

For `CC1CCC(C(C)C)C(O)C1` (centres unmarked) [menthol], the “Effect on hTRPA1 (activation or inhibition)” value (hTRPA1 [6]) is listed as “activate hTRPA1”.

In the case of `CC12CCC(CC1=O)C2(C)C` (centres unmarked) [Camphor], the “Inhibitory effect on AITC-activated current of hTRPA1-Y812A compared with hTRPA1-WT” value (hTRPA1-Y812A) is reported as “such differences between WT hTRPA1 and hTRPA1-Y812A were not observed”, the “Inhibitory effect on AITC-activated current of hTRPA1-S873V/T874L compared with hTRPA1-WT” value (hTRPA1-S873V/T874L) is reported as “no significant changes” and the “Inhibition of AITC-induced hTRPA1 current” value (hTRPA1 [3]) is reported as “partially inhibited”. The “Effect on mTRPA1-mediated basal current” value (mTRPA1) was “inhibition of mTRPA1-mediated basal current” and the “Effect on hTRPA1 (activation or inhibition)” value (hTRPA1 [6]) was “inhibit hTRPA1”.
